Test results as given in patent publication US8414989B2, “Cyclodextrin compositions, articles, and methods” (Cellresin Technologies, LLC, priority 2011, dated 2013).

Experiments:
[1] = Example 2: headspace analysis of 1-butene/c/α-CD powder (GC-FID); assay type: physicochemical; details: 100 mg 1-butene/c/α-CD powder, 250 mL bottle, no water, about 1 hour
Description: 1-butene/c/α-CD was analyzed by adding 100 mg of the collected and dried precipitate to a 250 mL glass bottle equipped with a septum cap, taking care to ensure that no powder adheres to the walls of the bottle. After about 1 hour, 250 μL of headspace gas was removed from the bottle using a six port, two-position gas sampling valve (Valco #EC6W) interfaced directly to a gas chromatograph (GC; Hewlett Packard 5890) using a RTx-5 GC column, 30 m×0.25 mm I.D., 0.25 μm film (obtained from Restek, Inc., of Bellefonte, Pa.) and equipped with flame ionization detector (FID). […] Then 3 mL of water was injected into the bottle through the septum, and the bottle is placed on a mechanical shaker and mixed vigorously for about 1 hour. After the shaking, 250 μL of the headspace gas is removed and added to an empty 250 mL bottle equipped with a septum cap, wherein the interior of the bottle was purged with nitrogen gas. The headspace concentration of 1-butene was quantified in the second bottle using gas chromatography by removing 250 μL, of gas from the 250 mL bottle using a six port, two-position gas sampling valve (Valco #EC6W) interfaced directly to a GC column having FID detector previously calibrated with a 6-point 1-butene (99.0% pure, Scott Specialty Gases, Plumsteadville, Pa.) calibration curve.

[2] = Example 2: 1-butene headspace release from UV-cured coating on polyethylene extrusion coated paper; assay type: physicochemical; details: cured 1-butene/c/α-CD coated 5 cm x 10 cm rectangle, 250 mL bottle; for Headspace concentration of 1-butene, Ave.: 50 μL water, average of six
Description: A 20 mL bottle was charged with 9.8 g of UV Coating VP 10169/60 MF-2NE (obtained from Verga GmbH of Aschau am Inn, Germany) and 0.2 g of 1-butene/c/α-CD. The bottle was firmly capped and the components were mixed by shaking the bottle by hand until uniformly dispersed.
About 3 mL of the mixture was removed with a dropper dispensed on a glass pan. A rubber ink roller was used to spread the mixture on the glass and roller. Next, the roller was used to coat the mixture on the coated side of a 20 cm by 20 cm section of polyethylene extrusion coated paper (REYNOLDS® Freezer Paper, 90 microns total thickness). The roller delivered a coating nominal thickness of 0.3 microns. A razor blade was used to cut a 5 cm by 10 cm rectangle from the coated sheet. Then the coated cut rectangle was passed by hand about 10 cm beneath a medium pressure mercury arc lamp operating at 200 watts per inch (79 watts per cm). After 1.5 seconds exposure to the lamp, the cured rectangle was removed. The cured rectangle was allowed to sit on a laboratory bench overnight coating side down.
Six replicate coated rectangles were made in this fashion. Each rectangle was placed in a 250 mL serum bottle. Then the six bottles were sealed with TEFLON® faced silicone septa. The 1-butene headspace concentration was quantified using gas chromatography by removing 250 μL of gas from the sample bottle using a six port, two-position gas sampling valve interfaced directly to the GC column having FID detector.
Then 50 μL of deionized water was injected into each bottle. […] The headspace of each of the six sealed bottles was analyzed at 0.5, 1, 2, 4, 8, 24, and 96 hours after the injection of water wherein about 3 mL of the 250 mL bottle headspace volume was removed for each analysis. In each sampling, the amount of 1-butene released from the UV coated rectangles was quantified by gas chromatography against a 6-point 1-butene calibration curve having a 0.998 correlation coefficient. Table 1 and FIG. 1 illustrate the average of six replicate samples of 1-butene headspace concentration and standard deviation.

## C=CCC [1-Butene, 1-butene]
[1]
  Headspace concentration of 1-butene: No measurable concentration
[2]; 0.5 hours
  Headspace concentration of 1-butene, Ave.: 0.46 ppm (v/v)
[2]; 1 hour
  Headspace concentration of 1-butene, Ave.: 1.5 ppm (v/v)
[2]; 2 hours
  Headspace concentration of 1-butene, Ave.: 3.0 ppm (v/v)
[2]; 4 hours
  Headspace concentration of 1-butene, Ave.: 4.9 ppm (v/v)
[2]; 8 hours
  Headspace concentration of 1-butene, Ave.: 6.0 ppm (v/v)
[2]; 24 hours
  Headspace concentration of 1-butene, Ave.: 7.6 ppm (v/v)
[2]; 96 hours
  Headspace concentration of 1-butene, Ave.: 7.8 ppm (v/v)
[2]; before water injection
  Headspace concentration of 1-butene: No measurable concentration
